Source: paper PMC7252619 (PLoS ONE, 2020)
“And” between values parts separate entries of the source, which are not always exact repeats. Identical values can stand only once. Like-named read-outs stand apart in the source and are kept apart here.

Tests used:
Experiment in all cases: Kinase activity test (ReactionBiology), % enzyme activity relative to DMSO
Type in all cases: biochemical
NEK2 = biological target: T1, NEK2 (Homo sapiens, UniProt P51955); details: NEK2;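 note: FDA-approved drugs chosen by structure-based repositioning, each screened at 10 or 1 µM for kinase activity, expressed as percent of DMSO controls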
T1 construct: purchased ReactionBiology
T1 sequence (P51955 1-445): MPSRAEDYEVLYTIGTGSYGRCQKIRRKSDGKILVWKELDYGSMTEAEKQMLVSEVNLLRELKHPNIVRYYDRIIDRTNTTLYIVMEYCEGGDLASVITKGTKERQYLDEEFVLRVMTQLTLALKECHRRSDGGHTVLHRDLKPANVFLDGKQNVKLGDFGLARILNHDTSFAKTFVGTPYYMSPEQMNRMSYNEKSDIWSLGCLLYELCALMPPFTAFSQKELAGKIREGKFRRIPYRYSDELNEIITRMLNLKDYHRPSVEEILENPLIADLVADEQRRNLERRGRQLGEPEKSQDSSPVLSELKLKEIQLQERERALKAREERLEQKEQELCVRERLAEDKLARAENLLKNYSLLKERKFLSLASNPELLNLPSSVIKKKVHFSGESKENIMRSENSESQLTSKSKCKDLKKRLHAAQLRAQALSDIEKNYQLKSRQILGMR

CK1d = biological target: T2, CK1d (Homo sapiens, UniProt P48730); details: CK1d
T2 construct: purchased ReactionBiology

EPHB4 = biological target: T3, EPHB4 (Homo sapiens, UniProt P54760); details: EPHB4;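 note: EPHB4 was one of ten selected kinases in the screening panel, with enzyme activity expressed as a percentage of DMSO controls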
T3 construct: purchased ReactionBiology
T3 sequence (P54760 16-987): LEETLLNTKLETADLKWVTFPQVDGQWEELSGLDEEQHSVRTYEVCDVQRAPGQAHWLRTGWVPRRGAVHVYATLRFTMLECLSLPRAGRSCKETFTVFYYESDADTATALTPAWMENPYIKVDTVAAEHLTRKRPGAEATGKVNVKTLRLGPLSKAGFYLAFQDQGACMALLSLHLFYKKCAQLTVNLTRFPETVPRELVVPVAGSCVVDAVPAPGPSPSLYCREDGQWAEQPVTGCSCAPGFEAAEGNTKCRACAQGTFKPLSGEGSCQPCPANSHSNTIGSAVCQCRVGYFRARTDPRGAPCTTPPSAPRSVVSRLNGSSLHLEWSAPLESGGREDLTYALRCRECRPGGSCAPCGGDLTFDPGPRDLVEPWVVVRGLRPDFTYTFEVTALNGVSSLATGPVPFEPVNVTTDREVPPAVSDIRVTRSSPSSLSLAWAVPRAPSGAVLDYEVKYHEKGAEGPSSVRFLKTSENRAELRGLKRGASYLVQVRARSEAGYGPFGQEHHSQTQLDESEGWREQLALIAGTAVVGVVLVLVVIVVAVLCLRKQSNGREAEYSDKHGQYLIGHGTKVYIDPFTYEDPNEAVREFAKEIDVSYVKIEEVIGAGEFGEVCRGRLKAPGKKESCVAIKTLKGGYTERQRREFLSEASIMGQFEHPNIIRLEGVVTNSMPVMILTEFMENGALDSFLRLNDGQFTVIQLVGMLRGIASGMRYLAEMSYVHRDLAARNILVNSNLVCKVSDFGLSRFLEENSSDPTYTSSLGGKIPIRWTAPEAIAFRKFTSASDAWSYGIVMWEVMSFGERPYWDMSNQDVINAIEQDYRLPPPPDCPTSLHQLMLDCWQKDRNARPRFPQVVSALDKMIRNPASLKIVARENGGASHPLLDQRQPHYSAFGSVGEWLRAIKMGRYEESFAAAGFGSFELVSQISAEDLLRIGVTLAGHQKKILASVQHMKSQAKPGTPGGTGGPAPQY

VEGFR2 = VEGFR2 (Homo sapiens, UniProt P35968); design: purchased ReactionBiology; details: VEGFR2;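 note: VEGFR2 was one member of a ten-kinase screening panel testing marketed FDA-approved drugs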
MST-4 = biological target: T4, MST-4 (Homo sapiens, UniProt Q9P289); details: for % Enzyme Activity (relative to DMSO controls), Average / % Enzyme Activity (relative to DMSO controls), Data 1 / % Enzyme Activity (relative to DMSO controls), Data 2: MST4; for % Enzyme Activity (relative to DMSO controls), Data 1: replicate Data 1; for % Enzyme Activity (relative to DMSO controls), Data 2: replicate Data 2;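 for all read-outs here: marketed FDA-approved drugs screened at 10 µM and 1 µM against a ten-kinase panel, remaining activity given as percent of DMSO controls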
T4 construct: purchased ReactionBiology

DAPK1 = biological target: T5, DAPK1 (Homo sapiens, UniProt P53355); details: for remaining activity at 1 µM / remaining activity at 10 µM: DAPK1
T5 construct: purchased ReactionBiology

[1] = 1 uM, Average, read-out: % Enzyme Activity (relative to DMSO controls), Average
[2] = 1 uM, replicate Data 1, read-out: % Enzyme Activity (relative to DMSO controls), Data 1
[3] = 1 uM, replicate Data 2, read-out: % Enzyme Activity (relative to DMSO controls), Data 2
[4] = 10 uM, Average, read-out: % Enzyme Activity (relative to DMSO controls), Average
[5] = 10 uM, replicate Data 1, read-out: % Enzyme Activity (relative to DMSO controls), Data 1
[6] = 10 uM, replicate Data 2, read-out: % Enzyme Activity (relative to DMSO controls), Data 2
[7] = Average, read-out: % Enzyme Activity (relative to DMSO controls), Average
[8] = replicate Data 1, read-out: % Enzyme Activity (relative to DMSO controls), Data 1
[9] = replicate Data 2, read-out: % Enzyme Activity (relative to DMSO controls), Data 2
[10] = read-out: % Enzyme Activity (relative to DMSO controls), Average
[11] = read-out: % Enzyme Activity (relative to DMSO controls), Data 1
[12] = read-out: % Enzyme Activity (relative to DMSO controls), Data 2

T5 sequence (P53355 whole entry): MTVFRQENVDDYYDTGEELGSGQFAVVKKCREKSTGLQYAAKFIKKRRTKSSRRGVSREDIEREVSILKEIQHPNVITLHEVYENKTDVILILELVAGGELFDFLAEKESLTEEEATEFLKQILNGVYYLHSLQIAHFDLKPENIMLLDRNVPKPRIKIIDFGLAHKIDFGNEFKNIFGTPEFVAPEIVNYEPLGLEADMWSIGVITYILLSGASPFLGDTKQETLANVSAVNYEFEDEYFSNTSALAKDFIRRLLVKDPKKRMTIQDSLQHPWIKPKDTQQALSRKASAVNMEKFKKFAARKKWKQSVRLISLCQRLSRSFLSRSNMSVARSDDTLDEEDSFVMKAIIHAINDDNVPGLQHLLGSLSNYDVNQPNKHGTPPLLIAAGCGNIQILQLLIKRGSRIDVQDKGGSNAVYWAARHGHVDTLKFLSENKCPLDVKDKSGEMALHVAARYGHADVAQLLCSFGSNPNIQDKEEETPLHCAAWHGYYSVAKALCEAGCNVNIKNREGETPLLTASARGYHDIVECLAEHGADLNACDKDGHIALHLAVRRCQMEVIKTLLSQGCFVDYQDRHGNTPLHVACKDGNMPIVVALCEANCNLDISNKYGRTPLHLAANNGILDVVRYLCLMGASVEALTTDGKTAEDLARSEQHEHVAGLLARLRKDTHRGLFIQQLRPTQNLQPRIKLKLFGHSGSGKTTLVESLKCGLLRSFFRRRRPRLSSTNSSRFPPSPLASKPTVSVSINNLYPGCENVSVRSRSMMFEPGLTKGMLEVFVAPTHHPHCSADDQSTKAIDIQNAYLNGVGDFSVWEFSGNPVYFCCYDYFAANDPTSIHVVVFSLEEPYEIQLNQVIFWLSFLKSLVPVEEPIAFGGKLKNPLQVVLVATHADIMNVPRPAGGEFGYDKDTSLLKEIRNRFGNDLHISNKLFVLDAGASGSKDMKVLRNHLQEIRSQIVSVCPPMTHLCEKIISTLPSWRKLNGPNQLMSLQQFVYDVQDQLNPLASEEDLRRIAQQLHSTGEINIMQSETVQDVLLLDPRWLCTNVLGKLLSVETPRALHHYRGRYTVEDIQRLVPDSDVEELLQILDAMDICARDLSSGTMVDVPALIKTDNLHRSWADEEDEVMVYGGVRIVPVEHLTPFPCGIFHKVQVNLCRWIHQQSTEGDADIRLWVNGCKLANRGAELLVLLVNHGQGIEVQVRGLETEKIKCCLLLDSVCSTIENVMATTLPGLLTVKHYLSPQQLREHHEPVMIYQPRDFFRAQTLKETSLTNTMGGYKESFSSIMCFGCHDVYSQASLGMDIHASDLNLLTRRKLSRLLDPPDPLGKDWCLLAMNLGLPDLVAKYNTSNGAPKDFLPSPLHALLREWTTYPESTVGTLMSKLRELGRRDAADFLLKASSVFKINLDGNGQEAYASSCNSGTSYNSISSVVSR
T2 sequence (P48730 whole entry): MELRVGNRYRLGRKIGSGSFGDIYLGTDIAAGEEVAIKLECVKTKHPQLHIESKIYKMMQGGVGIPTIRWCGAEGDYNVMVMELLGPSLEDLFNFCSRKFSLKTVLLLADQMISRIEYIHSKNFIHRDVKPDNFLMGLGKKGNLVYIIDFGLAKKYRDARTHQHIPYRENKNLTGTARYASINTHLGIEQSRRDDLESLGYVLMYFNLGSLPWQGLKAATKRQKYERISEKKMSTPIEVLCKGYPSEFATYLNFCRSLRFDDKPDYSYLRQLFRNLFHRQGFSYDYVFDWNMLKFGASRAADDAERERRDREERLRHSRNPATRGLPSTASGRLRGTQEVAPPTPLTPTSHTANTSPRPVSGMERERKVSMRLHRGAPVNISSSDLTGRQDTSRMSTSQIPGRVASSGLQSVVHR
T4 sequence (Q9P289 whole entry): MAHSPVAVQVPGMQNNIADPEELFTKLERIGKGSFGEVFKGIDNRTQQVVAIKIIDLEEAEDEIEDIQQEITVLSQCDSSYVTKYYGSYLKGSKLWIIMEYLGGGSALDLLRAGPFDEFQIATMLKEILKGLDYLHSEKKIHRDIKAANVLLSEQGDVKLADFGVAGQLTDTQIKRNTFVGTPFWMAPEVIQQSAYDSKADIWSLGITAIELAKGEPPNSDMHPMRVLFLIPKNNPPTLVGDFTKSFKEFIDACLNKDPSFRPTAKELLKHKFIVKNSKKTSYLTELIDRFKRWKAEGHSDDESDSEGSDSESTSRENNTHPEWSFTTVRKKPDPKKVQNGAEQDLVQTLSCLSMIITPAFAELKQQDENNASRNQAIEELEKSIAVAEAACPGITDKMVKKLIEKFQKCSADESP
VEGFR2, sequence (P35968 20-1356): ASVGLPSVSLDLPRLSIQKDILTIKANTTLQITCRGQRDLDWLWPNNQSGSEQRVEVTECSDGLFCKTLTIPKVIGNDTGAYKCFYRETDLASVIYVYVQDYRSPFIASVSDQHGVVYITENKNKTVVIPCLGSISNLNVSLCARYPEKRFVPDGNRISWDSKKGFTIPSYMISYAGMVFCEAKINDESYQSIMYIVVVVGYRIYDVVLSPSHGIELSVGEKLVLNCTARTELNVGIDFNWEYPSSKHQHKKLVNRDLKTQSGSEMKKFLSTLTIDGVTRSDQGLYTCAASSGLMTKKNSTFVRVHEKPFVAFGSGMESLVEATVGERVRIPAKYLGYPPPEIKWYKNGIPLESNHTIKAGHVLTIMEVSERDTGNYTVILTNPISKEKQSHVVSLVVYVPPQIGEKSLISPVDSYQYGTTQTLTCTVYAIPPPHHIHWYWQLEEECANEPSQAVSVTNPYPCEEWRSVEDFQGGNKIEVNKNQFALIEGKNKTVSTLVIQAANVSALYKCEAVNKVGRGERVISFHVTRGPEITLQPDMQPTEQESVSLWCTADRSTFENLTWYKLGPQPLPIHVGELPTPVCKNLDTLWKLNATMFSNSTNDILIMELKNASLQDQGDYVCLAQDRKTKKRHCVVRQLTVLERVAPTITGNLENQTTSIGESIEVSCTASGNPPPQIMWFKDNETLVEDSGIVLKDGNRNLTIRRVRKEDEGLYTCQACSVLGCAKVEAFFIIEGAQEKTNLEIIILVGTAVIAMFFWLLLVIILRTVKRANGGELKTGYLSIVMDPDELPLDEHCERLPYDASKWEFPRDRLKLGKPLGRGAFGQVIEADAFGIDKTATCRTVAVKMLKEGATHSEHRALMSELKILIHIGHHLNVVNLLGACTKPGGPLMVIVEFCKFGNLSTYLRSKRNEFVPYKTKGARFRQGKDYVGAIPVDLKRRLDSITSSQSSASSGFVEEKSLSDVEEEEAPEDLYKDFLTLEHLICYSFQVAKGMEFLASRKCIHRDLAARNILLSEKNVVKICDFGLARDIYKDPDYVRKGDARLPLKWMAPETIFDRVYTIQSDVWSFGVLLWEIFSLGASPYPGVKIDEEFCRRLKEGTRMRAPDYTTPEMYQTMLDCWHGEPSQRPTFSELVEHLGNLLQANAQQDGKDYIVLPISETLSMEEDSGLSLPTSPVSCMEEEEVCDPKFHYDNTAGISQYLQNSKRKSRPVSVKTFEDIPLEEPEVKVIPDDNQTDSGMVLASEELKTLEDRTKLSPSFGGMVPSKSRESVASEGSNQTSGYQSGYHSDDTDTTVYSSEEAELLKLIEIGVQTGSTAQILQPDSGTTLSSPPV

Compound: O=C(O)c1ccccc1O [Salicylic acid]
- remaining activity at 1 µM (NEK2; [1]): 88.2%
- remaining activity at 1 µM (NEK2; [2]): 88.1%
- remaining activity at 1 µM (NEK2; [3]): 88.3%
- remaining activity at 10 µM (NEK2; [4]): 102%
- remaining activity at 10 µM (NEK2; [5]): 93.8%
- remaining activity at 10 µM (NEK2; [6]): 109%
- remaining activity at 1 µM (CK1d; [1]): 105%
- remaining activity at 1 µM (CK1d; [2]): 107%
- remaining activity at 1 µM (CK1d; [3]): 103%
- remaining activity at 10 µM (CK1d; [7]): 109%
- remaining activity at 10 µM (CK1d; [8]): 109%
- remaining activity at 10 µM (CK1d; [9]): 110%
- remaining activity at 1 µM (EPHB4; [1]): 101%
- remaining activity at 1 µM (EPHB4; [2]): 99.4%
- remaining activity at 1 µM (EPHB4; [3]): 102%
- remaining activity at 10 µM (EPHB4; [4]): 93.4%
- remaining activity at 10 µM (EPHB4; [5]): 93%
- remaining activity at 10 µM (EPHB4; [6]): 93.8%
- remaining activity at 1 µM (VEGFR2; [1]): 96.6%
- remaining activity at 1 µM (VEGFR2; [2]): 94.4%
- remaining activity at 1 µM (VEGFR2; [3]): 98.7%
- remaining activity at 10 µM (VEGFR2; [4]): 101%
- remaining activity at 10 µM (VEGFR2; [5]): 103%
- remaining activity at 10 µM (VEGFR2; [6]): 99.4%

Compound: O=P(O)(O)C(O)(Cc1cnc2ccccn12)P(=O)(O)O [Minodronic acid]
- remaining activity at 1 µM (MST-4; [10]): 95.6%
- remaining activity at 10 µM (MST-4; [10]): 81.5%
- remaining activity at 1 µM (MST-4; [11]): 84.5%
- remaining activity at 10 µM (MST-4; [11]): 83.7%
- remaining activity at 1 µM (MST-4; [12]): 107%
- remaining activity at 10 µM (MST-4; [12]): 79.3%

Compound: Cc1cccc(C)c1OCC(=O)N[C@@H](Cc1ccccc1)[C@@H](O)C[C@H](Cc1ccccc1)NC(=O)[C@H](C(C)C)N1CCCNC1=O [Lopinavir, reference compound]
- remaining activity at 1 µM (NEK2; [1]): 116%
- remaining activity at 1 µM (NEK2; [2]): 118%
- remaining activity at 1 µM (NEK2; [3]): 115%
- remaining activity at 10 µM (NEK2; [4]): 88.7%
- remaining activity at 10 µM (NEK2; [5]): 98.3%
- remaining activity at 10 µM (NEK2; [6]): 79.2%
- remaining activity at 1 µM (DAPK1; [1]): 90.4%
- remaining activity at 1 µM (DAPK1; [2]): 87.6%
- remaining activity at 1 µM (DAPK1; [3]): 93.2%
- remaining activity at 10 µM (DAPK1; [4]): 49.9%
- remaining activity at 10 µM (DAPK1; [5]): 47.2%
- remaining activity at 10 µM (DAPK1; [6]): 52.5%
- remaining activity at 1 µM (DAPK1; compound 1μM, relative to DMSO controls, read-out: % Enzyme activity at 1μM): 90.4%
- remaining activity at 10 µM (DAPK1; compound 10μM, relative to DMSO controls, read-out: % Enzyme activity at 10μM): 49.9%
- remaining activity at 1 µM (CK1d; [1]): 107%
- remaining activity at 1 µM (CK1d; [2]): 111%
- remaining activity at 1 µM (CK1d; [3]): 102%
- remaining activity at 10 µM (CK1d; [7]): 109%
- remaining activity at 10 µM (CK1d; [8]): 113%
- remaining activity at 10 µM (CK1d; [9]): 105%
- remaining activity at 1 µM (EPHB4; [1]): 92.6%
- remaining activity at 1 µM (EPHB4; [2]): 95.6%
- remaining activity at 1 µM (EPHB4; [3]): 89.7%
- remaining activity at 10 µM (EPHB4; [4]): 87.3%
- remaining activity at 10 µM (EPHB4; [5]): 89%
- remaining activity at 10 µM (EPHB4; [6]): 85.7%
- remaining activity at 1 µM (VEGFR2; [1]): 104%
- remaining activity at 1 µM (VEGFR2; [2]): 106%
- remaining activity at 1 µM (VEGFR2; [3]): 103%
- remaining activity at 10 µM (VEGFR2; [4]): 99%
- remaining activity at 10 µM (VEGFR2; [5]): 103%
- remaining activity at 10 µM (VEGFR2; [6]): 95%

Compound: O=C1Nc2ccc(Cl)cc2[C@@](C#CC2CC2)(C(F)(F)F)O1 [Efavirenz]
- % Enzyme Activity (relative to DMSO controls), Data 1 (NEK2; 1 uM, replicate Data 1): 110.94%
- % Enzyme Activity (relative to DMSO controls), Data 1 (NEK2; 10 uM, replicate Data 1): 81.38%
- % Enzyme Activity (relative to DMSO controls), Data 1 (CK1d; 1 uM, replicate Data 1): 101.66%
- % Enzyme Activity (relative to DMSO controls), Data 1 (EPHB4; 1 uM, replicate Data 1): 93.6%
- % Enzyme Activity (relative to DMSO controls), Data 1 (EPHB4; 10 uM, replicate Data 1): 93.32%
- % Enzyme Activity (relative to DMSO controls), Data 1 (VEGFR2; 1 uM, replicate Data 1): 102.21%
- % Enzyme Activity (relative to DMSO controls), Data 1 (VEGFR2; 10 uM, replicate Data 1): 95.58%

Compound: Oc1ccc(O)cc1 [Hydroquinone]
- % Enzyme Activity (relative to DMSO controls), Average (DAPK1): 106.84% and 99.20%
- % Enzyme Activity (relative to DMSO controls), Data 1 (DAPK1): 112.42% and 95.43%
- % Enzyme Activity (relative to DMSO controls), Data 2 (DAPK1): 101.25% and 102.97%
- % Enzyme Activity (relative to DMSO controls), Average (MST-4; 1 uM): 86.76%
- % Enzyme Activity (relative to DMSO controls), Data 1 (MST-4; 1 uM): 90.83%
- % Enzyme Activity (relative to DMSO controls), Data 2 (MST-4; 1 uM): 82.69%
- % Enzyme Activity (relative to DMSO controls), Average (MST-4; 10 uM): 89.91%
- % Enzyme Activity (relative to DMSO controls), Data 1 (MST-4; 10 uM): 90.73%
- % Enzyme Activity (relative to DMSO controls), Data 2 (MST-4; 10 uM): 89.08%
- % Enzyme Activity (relative to DMSO controls), Average (VEGFR2; 1 uM, Average): 108.33%
- % Enzyme Activity (relative to DMSO controls), Data 1 (VEGFR2; 1 uM, replicate Data 1): 107.95%
- % Enzyme Activity (relative to DMSO controls), Data 2 (VEGFR2; 1 uM, replicate Data 2): 108.7%
- % Enzyme Activity (relative to DMSO controls), Average (VEGFR2; 10 uM, Average): 108.92%
- % Enzyme Activity (relative to DMSO controls), Data 1 (VEGFR2; 10 uM, replicate Data 1): 109.26%
- % Enzyme Activity (relative to DMSO controls), Data 2 (VEGFR2; 10 uM, replicate Data 2): 108.57%

Compound: O=C(CCCCCCC(=O)Nc1ccccc1)NO [Vorinostat]
- % Enzyme Activity (relative to DMSO controls), Average (MST-4; 1 uM): 61.30%
- % Enzyme Activity (relative to DMSO controls), Data 1 (MST-4; 1 uM): 64.87%
- % Enzyme Activity (relative to DMSO controls), Data 2 (MST-4; 1 uM): 57.73%
- % Enzyme Activity (relative to DMSO controls), Average (MST-4; 10 uM): 101.79%
- % Enzyme Activity (relative to DMSO controls), Data 1 (MST-4; 10 uM): 93.77%
- % Enzyme Activity (relative to DMSO controls), Data 2 (MST-4; 10 uM): 109.8%
